Our source for the IC50 values is patent US12240844B2 (Voronoi, Inc., priority 2019, dated 2025).

Molecules are shown by their SMILES.

Format in all cases: biochemical
For experiment [1], the target named is T1, human GST-CLK1 (129-end) (Homo sapiens, UniProt P49759).
T1 construct: purified human GST-CLK1 (129-end, Signalchem) enzyme; GST; purchased Signalchem
The experiment is described as follows: GST-CLK1 enzyme inhibition, ADP-Glo kinase assay. As to conditions: ATP 10 uM. An outline of the steps: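 GST-CLK1 (129-end, 3 ng) reacted with 10 uM ATP and substrate in 40 mM Tris-HCl pH 7.4, 20 mM MgCl2, 0.5 mg/mL BSA, 50 uM DTT, 1 h at 25° C. ADP-Glo luminescence normalised to solvent control; IC50 from triplicate data.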
A general note: ADP-Glo turns the ADP formed in a reaction into a luminescent signal.

For experiment [2], the target named is LRRK2 (Homo sapiens, UniProt Q5S007). In words: LRRK2 enzyme inhibition, ADP-Glo kinase assay. On the set-up: purchased Invitrogen PR8604B. An outline of the steps:
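Purified human LRRK2 (25 ng) in 40 mM Tris-HCl pH7.4, 20 mM MgCl2, 0.5 mg/ml BSA, 50 μM DTT with 10 μM ATP and substrate ([…]), 2 h at 25° C. Final compound 50 to 0.000001024 μM, 12-point dilution. ADP-Glo luminescence vs solvent control; IC50 (nM).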

Experiment [3] addresses LRRK2 (G2019S) (Homo sapiens, UniProt Q5S007, G2019S). In words: LRRK2 G2019S enzyme inhibition, ADP-Glo kinase assay. On the set-up: purchased SignalChem L10-12GG. A digest of the protocol: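 Purified human LRRK2 G2019S (16 ng) with 25 μM ATP and 0.2 μg substrate, 2 h at 25° C in 40 mM Tris-HCl pH 7.4, 20 mM MgCl2, 0.5 mg/ml BSA, 50 μM DTT; compound at 12 final concentrations from 50 μM downward. ADP-Glo luminescence versus solvent control gave IC50 (nM).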

Sequence of LRRK2 (G2019S) (Q5S007 970-2527 G2019S limits assumed): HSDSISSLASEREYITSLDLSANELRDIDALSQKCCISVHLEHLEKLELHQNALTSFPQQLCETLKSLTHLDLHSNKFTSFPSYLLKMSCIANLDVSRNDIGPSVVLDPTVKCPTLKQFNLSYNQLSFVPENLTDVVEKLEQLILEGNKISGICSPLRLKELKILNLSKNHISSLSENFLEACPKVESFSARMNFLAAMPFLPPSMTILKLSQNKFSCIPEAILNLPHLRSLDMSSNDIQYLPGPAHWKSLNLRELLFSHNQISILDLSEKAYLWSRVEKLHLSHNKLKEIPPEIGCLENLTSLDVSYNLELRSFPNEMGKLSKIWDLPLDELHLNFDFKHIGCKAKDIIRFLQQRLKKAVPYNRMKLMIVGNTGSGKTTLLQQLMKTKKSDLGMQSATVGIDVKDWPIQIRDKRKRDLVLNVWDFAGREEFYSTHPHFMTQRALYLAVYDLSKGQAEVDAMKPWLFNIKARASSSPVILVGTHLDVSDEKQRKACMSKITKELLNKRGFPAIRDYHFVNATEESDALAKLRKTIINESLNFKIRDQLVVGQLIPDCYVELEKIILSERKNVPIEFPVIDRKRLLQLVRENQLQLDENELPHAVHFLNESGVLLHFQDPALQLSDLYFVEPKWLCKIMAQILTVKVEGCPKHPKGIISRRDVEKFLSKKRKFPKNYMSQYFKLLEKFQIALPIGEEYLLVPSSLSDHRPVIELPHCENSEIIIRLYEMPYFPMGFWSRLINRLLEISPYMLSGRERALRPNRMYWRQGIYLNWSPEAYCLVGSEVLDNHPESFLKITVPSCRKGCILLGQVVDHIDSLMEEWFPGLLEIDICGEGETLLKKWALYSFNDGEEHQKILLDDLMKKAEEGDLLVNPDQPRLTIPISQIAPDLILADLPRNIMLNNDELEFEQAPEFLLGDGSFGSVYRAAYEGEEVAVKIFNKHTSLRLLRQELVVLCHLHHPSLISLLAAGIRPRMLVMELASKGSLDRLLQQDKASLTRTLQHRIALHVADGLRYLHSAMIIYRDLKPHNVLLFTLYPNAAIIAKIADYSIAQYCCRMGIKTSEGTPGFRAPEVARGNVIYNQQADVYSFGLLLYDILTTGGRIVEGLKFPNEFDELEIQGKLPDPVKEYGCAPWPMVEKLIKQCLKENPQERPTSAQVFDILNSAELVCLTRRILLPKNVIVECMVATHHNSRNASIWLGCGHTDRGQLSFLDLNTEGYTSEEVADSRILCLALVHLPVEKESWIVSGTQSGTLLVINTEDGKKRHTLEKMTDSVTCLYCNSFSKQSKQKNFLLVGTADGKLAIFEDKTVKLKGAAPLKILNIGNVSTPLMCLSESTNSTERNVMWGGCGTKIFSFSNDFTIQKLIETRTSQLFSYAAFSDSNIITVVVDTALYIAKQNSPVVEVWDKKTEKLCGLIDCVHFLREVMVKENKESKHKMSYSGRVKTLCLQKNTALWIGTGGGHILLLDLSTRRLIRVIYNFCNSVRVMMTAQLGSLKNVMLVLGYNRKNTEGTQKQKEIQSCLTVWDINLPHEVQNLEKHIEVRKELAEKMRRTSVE
Sequence of LRRK2 (Q5S007 970-2527 limits assumed): as the sequence (Q5S007 970-2527 G2019S limits assumed) above, with S1050G counted along it
T1 sequence (P49759 129-484 limits assumed): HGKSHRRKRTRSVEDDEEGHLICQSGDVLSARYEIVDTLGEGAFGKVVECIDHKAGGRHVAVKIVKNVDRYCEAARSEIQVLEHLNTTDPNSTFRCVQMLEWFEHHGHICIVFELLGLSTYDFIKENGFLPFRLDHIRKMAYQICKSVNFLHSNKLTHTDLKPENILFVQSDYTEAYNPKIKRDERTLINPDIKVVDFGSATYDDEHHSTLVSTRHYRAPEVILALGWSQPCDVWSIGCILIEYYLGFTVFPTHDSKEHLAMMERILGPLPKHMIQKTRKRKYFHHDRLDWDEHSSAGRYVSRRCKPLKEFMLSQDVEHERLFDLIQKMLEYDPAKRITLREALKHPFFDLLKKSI

For `CCNc1cc(Nc2ccc(C(=O)N3CCC(N4CCOCC4)CC3)c3c2OCO3)nc2[nH]cc(C(F)(F)F)c12` [Example 37, (7-((4-(ethylamino)-3-(trifluoromethyl)-1H-pyrrolo[2,3-b]pyridin-6-yl)amino)benzo[d][1,3]dioxol-4-yl)(4-morpholinopiperidin-1-yl)methanone], the IC50 in experiment [1], in experiment [2] and in experiment [3] was below 100 nM in each case.

For `COc1cc(P2(=O)CCN(C(C)=O)CC2)ccc1Nc1cc(C2CC2)c2c(C(F)(F)F)c[nH]c2n1` [Example 48, 1-(4-(4-((4-cyclopropyl-3-(trifluoromethyl)-1H-pyrrolo[2,3-b]pyridin-6-yl)amino)-3-methoxyphenyl)-4-oxido-1,4-azaphosphinan-1-yl)ethan-1-one], the IC50 in experiment [1], in experiment [2] and in experiment [3] was 301 to 1000 nM in each case.

Regarding `O=C(c1ccc(Nc2cc(C3CC3)c3c(C(F)(F)F)c[nH]c3n2)c2c1OCO2)N1CCC(N2CCOCC2)CC1` [Example 49, (7-((4-cyclopropyl-3-(trifluoromethyl)-1H-pyrrolo[2,3-b]pyridin-6-yl)amino)benzo[d][1,3]dioxol-4-yl)(4-morpholinopiperidin-1-yl)methanone], the IC50 in experiment [1] and in experiment [2] was below 100 nM in each case.

On to `COCCNc1cc(Nc2ccc(C(=O)N3CCC(N4CCOCC4)CC3)c3c2OCC3)nc2[nH]cc(C(F)(F)F)c12` [Example 55, (7-((4-((2-methoxyethyl)amino)-3-(trifluoromethyl)-1H-pyrrolo[2,3-b]pyridin-6-yl)amino)-2,3-dihydrobenzofuran-4-yl)(4-morpholinopiperidin-1-yl)methanone], for which the IC50 in experiment [1], in experiment [2] and in experiment [3] was below 100 nM throughout.

With `O=C(c1ccc(Nc2cc(NC3CC3)c3c(C(F)(F)F)c[nH]c3n2)c2c1CCO2)N1CCC(N2CCOCC2)CC1` [Example 92, (7-((4-(cyclopropylamino)-3-(trifluoromethyl)-1H-pyrrolo[2,3-b]pyridin-6-yl)amino)-2,3-dihydrobenzofuran-4-yl)(4-morpholinopiperidin-1-yl)methanone], the IC50 in experiment [1], in experiment [2] and in experiment [3] was below 100 nM in each case.

Regarding `O=C(c1ccc(Nc2cc(C3CC3)c3c(C(F)(F)F)c[nH]c3n2)c2c1CCO2)N1CCC(N2CCOCC2)CC1` [Example 93, (7-((4-cyclopropyl-3-(trifluoromethyl)-1H-pyrrolo[2,3-b]pyridin-6-yl)amino)-2,3-dihydrobenzofuran-4-yl)(4-morpholinopiperidin-1-yl)mthanone], the IC50 in experiment [1], in experiment [2] and in experiment [3] was below 100 nM in each case.

On to `CCNc1cc(Nc2ccc(S(=O)(=O)N3CCC(N4CCOCC4)CC3)c3c2OCCO3)nc2[nH]cc(C(F)(F)F)c12` [Example 96, N^4-ethyl-N^6-(8-((4-morpholonopiperidin-1-yl)sulfonyl)-2,3-dihydrobenzo [b] [1,4]dioxin-5-yl)-3-(trifluoromethyl)-1H-pyrrolo[2,3-b]pyridine-4,6-diamine], for which the values for the IC50 in experiment [1], in experiment [2] and in experiment [3] were 101 to 300 nM, below 100 nM and below 100 nM, respectively.

Take `CNc1cc(Nc2ccc(P3(=O)CCN(C4CC4)CC3)cc2OC)nc2[nH]cc(C#N)c12` [Example 146, 6-((4-(1-cyclopropyl-4-oxido-1,4-azaphosphinan-4-yl)-2-methoxyphenyl)amino)-4-(methylamino)-1H-pyrrolo[2,3-b]pyridine-3-carbonitrile]: the IC50 (in general, the concentration that inhibits the measured activity by half) in experiment [1] is 301 to 1000 nM; in experiment [2] it was below 100 nM.

Consider `COCCNc1cc(Nc2ccc(P3(=O)CCN(C4CC4)CC3)cc2OC)nc2[nH]cc(C#N)c12` [Example 148, 6-((4-(1-cyclopropyl-4-oxido-1,4-azaphosphinan-4-yl)-2-methoxyphenyl)amino)-4-((2-methoxyethyl)amino)-1H-pyrrolo[2,3-b]pyridine-3-carbonitrile], for which the IC50 in experiment [1] was 301 to 1000 nM; in experiment [2], below 100 nM.

Take `CNc1cc(Nc2ccc(C(=O)N3CCC(N4CCOCC4)CC3)c3c2OCCO3)nc2[nH]cc(C(F)(F)F)c12` [Example 160, (8-((4-(methylamino)-3-(trifluoromethyl)-1H-pyrrolo[2,3-b]pyridin-6-yl)amino)-2,3-dihydrobenzo [b] [1,4]dioxin-5-yl)(4-morpholinopiperidin-1-yl)methanone]: the IC50 in experiment [1], in experiment [2] and in experiment [3] was below 100 nM in each case.

With `CCCNc1cc(Nc2ccc(C(=O)N3CCC(N4CCOCC4)CC3)c3c2OCCO3)nc2[nH]cc(C(F)(F)F)c12` [Example 162, (4-morpholinopiperidin-1-yl)(8-((4-(propylamino)-3-(trifluoromethyl)-1H-pyrrolo[2,3-b]pyridin-6-yl)amino)-2,3-dihydrobenzo[b] [1,4]dioxin-5-yl)methanone], the IC50 in experiment [1], in experiment [2] and in experiment [3] was below 100 nM each time.

Consider `CNc1cc(Nc2ccc(S(=O)(=O)N3CCC(N4CCOCC4)CC3)cc2OC)nc2[nH]cc(C(F)(F)F)c12` [Example 184, N^6-(2-methoxy-4-((4-morpholinopiperidin-1-yl)sulfonyl)phenyl)-N^4-methyl-3-(trifluoromethyl)-1H-pyrrolo[2,3-b]pyridine-4,6-diamine], for which the IC50 in experiment [3] is below 100 nM.

For the compound `CNc1cc(Nc2ccc(P3(=O)CCN(C4CC4)CC3)cc2OC)nc2[nH]cc(C(F)(F)F)c12` [Example 205, 1-cyclopropyl-4-(3-methoxy-4-((4-(methylamino)-3-(trifluoromethyl)-1H-pyrrolo[2,3-b]pyridin-6-yl)amino)phenyl)-1,4-azaphosphinane 4-oxide], the IC50 is below 100 nM in experiment [1], 101 to 300 nM in experiment [2] and 101 to 300 nM in experiment [3].

Regarding `CCNc1cc(Nc2ccc(P3(=O)CCN(C4CC4)CC3)cc2OC)nc2[nH]cc(C(F)(F)F)c12` [Example 206, 1-cyclopropyl-4-(4-((4-(ethylamino)-3-(trifluoromethyl)-1H-pyrrolo[2,3-b]pyridin-6-yl)amino)-3-methoxyphenyl)-1,4-azaphosphinane 4-oxide], the IC50 in experiment [1] lay in the range of 301 to 1000 nM; in experiment [2], 101 to 300 nM.

For the compound `CNc1cc(Nc2ccc(C(=O)N3CC[C@@H](N4CCOCC4)C3)c3c2OCC3)nc2[nH]cc(C(F)(F)F)c12` [Example 214, (R)-(7-((4-(methylamino)-3-(trifluoromethyl)-1H-pyrrolo[2,3-b]pyridin-6-yl)amino)-2,3-dihydrobenzofuran-4-yl)(3-morpholinopyrrolidin-1-yl)methanone], the IC50 in experiment [1], in experiment [2] and in experiment [3] was below 100 nM in each case.

Regarding `CNc1cc(Nc2ccc(C(=O)N3CC[C@H](N4CCOCC4)C3)c3c2OCC3)nc2[nH]cc(C(F)(F)F)c12` [Example 217, (S)-(7-((4-(methylamino)-3-(trifluoromethyl)-1H-pyrrolo[2,3-b]pyridin-6-yl)amino)-2,3-dihydrobenzofuran-4-yl)(3-morpholinopyrrolidin-1-yl)methanone], the IC50 in experiment [1] and in experiment [2] was below 100 nM in each case.

As to `CCNc1cc(Nc2cc(F)c(S(=O)(=O)N3CCC(N4CCOCC4)CC3)cc2OC)nc2[nH]cc(C(F)(F)F)c12` [Example 266, N^4-ethyl-N^6-(5-fluoro-2-methoxy-4-((4-morpholinopiperidin-1-yl)sulfonyl)phenyl)-3-(trifluoromethyl)-1H-pyrrolo[2,3-b]pyridine-4,6-diamine], the IC50 fell in the range of 301 to 1000 nM in experiment [1] and 101 to 300 nM in experiment [3].
